Patent US7976877B2, “Use of knotwood extracts” (Oy Arbonova Ab, priority 2003, dated 2011)
pIC50: −log10 of the molar value.

How the values were obtained:
Assay type in all cases: biochemical
[1] = test system: t-butylhydroperoxide (t-BuOOH) induced lipid peroxidation in rat liver microsomes; assay: Inhibition of t-BuOOH induced lipid peroxidation in rat liver microsomes in vitro (luminol-enhanced chemiluminescence)
Text: Estimation of inhibition of lipid peroxidation. The antioxidant properties of the extracts, fractions thereof and the pure compounds were estimated by their potency to inhibit t-butylhydroperoxide (t-BuOOH) induced lipid peroxidation in rat liver microsomes in vitro (17) and by their capacity to trap superoxide (oxygen radical) and peroxyl radicals, estimated by chemiluminescence-based methodology (17). The lipid peroxidation was detected by luminol-enhanced chemiluminescence. Test compounds or extracts were added to incubation mixtures in a small volume (2% of incubation volume), and the lipid peroxidation potency was compared to that of the vehicle (ethanol). Assays for the t-BuOOH-initiated lipid peroxidation was performed as follows. The buffer (50 mM sodium carbonate, pH 10.2, with 0.1 mM EDTA) was pipetted in a volume of 0.8 mL in the luminometer cuvette. 20 μL of diluted rat liver microsomes (final concentration 1.5 μg protein/mL) was added, followed by 6 μL of luminol (0.5 mg/mL) and test chemicals. The reaction was initiated by 0.05 mL of 0.9 mM t-BuOOH at 33° C. The chemiluminescence was measured for 45 min at 1 min cycles. The tests were repeated two to four times on separate days. Variation between assays were <10%.

[2] = Scavenging of superoxide radicals in vitro (xanthine-xanthine oxidase system, lucigenin chemiluminescence)
Protocol: (§1) Estimation of free radical trapping capacity. The capacity of the extracts, fractions thereof and the pure compounds to trap superoxide (oxygen radical) and peroxyl radicals was estimated by chemiluminescence-based methodology (17). Superoxide anions were produced by xanthine-xanthine oxidase system as follows. 20 μL of xanthine oxidase (420 mU/mL), 0.02 mL of 5 mM lucigenin, 0.02 mL of 200 mM linoleic acid dissolved in 50 mM KOH, 0.78 mL of 50 mM potassium phosphate buffer, pH 10.0, and test samples were pipetted in cuvettes. The reaction was initiated by the automated dispensing of 0.11 mL of 1.45 mM xanthine (final volume 1.0 mL). Chemiluminescence in duplicate samples at 35° C. was measured for 6 min in 1-min cycles. Peroxyl radicals were generated by thermal decomposition of 2,2′-azobis(2-amidinopropane)-hydrochloride as follows. 0.45 mL of 0.1 M sodium phosphate buffer, pH 7.4, containing 0.9% NaCl, 0.02 mL of 120 mM linoleic acid, 0.05 mL of luminol (0.5 mg/mL) and test compounds were mixed in the cuvette. The assay was initiated by 0.05 mL of ABAP (83 mg/mL). Chemiluminescence in triplicate cuvettes at 37° C. was measured until a peak value for each sample was detected. The half-peak time point defined the peroxyl radical trapping capacity.

[3] = Scavenging of peroxyl radicals in vitro (thermal decomposition of ABAP, luminol chemiluminescence); settings: for Stoichiometric factor (peroxyl radicals), range over the two test series: Series 1 and 2 together
Protocol: as §1

[4] = Series 1, pure compounds, rat liver microsomes
[5] = knotwood extracts, fractions and reference compounds, rat liver microsomes
[6] = knotwood extracts, fractions and reference compounds
[7] = Series 2, pure compounds, different batch of rat liver microsomes

SMILES	pIC50 [1, 4]	pIC50 ([2]; Series 1, pure compounds)	Inhibition of lipid peroxidation in vitro, IC50 [1, 4]	pIC50 [1, 7]	Inhibition of lipid peroxidation in vitro, IC50 [1, 7]	Scavenging of superoxide radicals in vitro, IC50 ([2]; Series 1, pure compounds)	Inhibition of lipid peroxidation in vitro, IC50 [1, 5]	Scavenging of superoxide radicals in vitro, IC50 [2, 6]	Stoichiometric factor (peroxyl radicals scavenged per mole of compound) ([3]; Series 1, pure compounds)	Trapping capacity (peroxyl radicals scavenged per gram) ([3]; Series 1, pure compounds)	Stoichiometric factor (peroxyl radicals scavenged per mole of compound) ([3]; Series 2, pure compounds)	Trapping capacity (peroxyl radicals scavenged per gram) ([3]; Series 2, pure compounds)	Scavenging of superoxide radicals in vitro, IC50 ([2]; Series 1, pure compounds, listed as nortrachelogenin)	Stoichiometric factor (peroxyl radicals), range over the two test series [3]	Scavenging of superoxide radicals in vitro, IC50 ([2]; Series 1, pure compounds, listed as secoisolariciresinol)	Trapping capacity (peroxyl radicals scavenged per gram) ([3]; knotwood extracts, fractions and reference compound)
COc1ccc(O)c(C(C)(C)C)c1 [BHA, butylated hydroxyanisole, reference compound]	5.96	7.82					0.198 µg/mL	0.0027 µg/mL								
COc1cc(C[C@@H](CO)[C@H](CO)Cc2ccc(O)c(OC)c2)ccc1O [Secoisolariciresinol]	7.00	8.32	0.037 µg/mL	6.82	0.054 µg/mL	0.0018 µg/mL			3.1 mole/mole	8.5 mmol/g	4.0 mole/mole	11 mmol/g		3.1-4.0 mole/mole	more effective scavengers than both BHA and Trolox	
Cc1c(C)c2c(c(C)c1O)CCC(C)(C(=O)O)O2 (centres unmarked) [Trolox, 6-hydroxy-2,5,7,8-tetramethylchroman-2-carboxylic acid, reference compound]	7.70	7.60		6.74	0.046 µg/mL		0.005 µg/mL	0.0063 µg/mL	2.0 mole/mole	8.0 mmol/g	1.7 mole/mole	6.8 mmol/g		1.7-2.0 mole/mole		8.0 mmol/g

Now from value to compound, other results behind:

pIC50 [1, 4]	pIC50 ([2]; Series 1, pure compounds)	Inhibition of lipid peroxidation in vitro, IC50 [1, 4]	pIC50 [1, 7]	Inhibition of lipid peroxidation in vitro, IC50 [1, 7]	Scavenging of superoxide radicals in vitro, IC50 ([2]; Series 1, pure compounds)	SMILES	Inhibition of lipid peroxidation in vitro, IC50 [1, 5]	Scavenging of superoxide radicals in vitro, IC50 [2, 6]	Stoichiometric factor (peroxyl radicals scavenged per mole of compound) ([3]; Series 1, pure compounds)	Trapping capacity (peroxyl radicals scavenged per gram) ([3]; Series 1, pure compounds)	Stoichiometric factor (peroxyl radicals scavenged per mole of compound) ([3]; Series 2, pure compounds)	Trapping capacity (peroxyl radicals scavenged per gram) ([3]; Series 2, pure compounds)	Scavenging of superoxide radicals in vitro, IC50 ([2]; Series 1, pure compounds, listed as nortrachelogenin)	Stoichiometric factor (peroxyl radicals), range over the two test series [3]	Scavenging of superoxide radicals in vitro, IC50 ([2]; Series 1, pure compounds, listed as secoisolariciresinol)	Trapping capacity (peroxyl radicals scavenged per gram) ([3]; knotwood extracts, fractions and reference compound)
6.82	6.66	0.058 µg/mL	6.74	0.067 µg/mL	0.081 µg/mL	COc1cc(C[C@H]2C(=O)OC[C@@H]2[C@H](O)c2ccc(O)c(OC)c2)ccc1O [Hydroxymatairesinol]			2.1 mole/mole	5.6 mmol/g	2.7 mole/mole	7.3 mmol/g				
6.46	7.46	0.126 µg/mL	6.77	0.063 µg/mL	0.013 µg/mL	COc1cc(C[C@H]2CO[C@H](c3ccc(O)c(OC)c3)[C@H]2CO)ccc1O [Lariciresinol]			1.0 mole/mole	2.7 mmol/g	2.6 mole/mole	7.3 mmol/g				
6.55	7.40	0.099 µg/mL			0.014 µg/mL	COc1cc(C[C@H]2COC(=O)[C@@H]2Cc2ccc(O)c(OC)c2)ccc1O [Matairesinol]			1.0 mole/mole	2.9 mmol/g						
6.85	8.85	0.053 µg/mL	6.72	0.07 µg/mL	0.00053 µg/mL	COc1cc(CC2COC(=O)C2(O)Cc2ccc(O)c(OC)c2)ccc1O (centres unmarked) [Nortrachelogenin]			2.2 mole/mole	5.9 mmol/g	2.0 mole/mole	5.3 mmol/g	more effective scavengers than both BHA and Trolox			
